According to paper PMC6151437, “Antibacterial Synthetic Peptides Derived from Bovine Lactoferricin Exhibit Cytotoxic Effect against MDA-MB-468 and MDA-MB-231 Breast Cancer Cell Lines” (Molecules : A Journal of Synthetic Chemistry and Natural …, 2017):
Where two headings read alike, the source gives them in different places. Bridge positions count the residues as written; N and C are the ends. Square brackets hold non-standard residues; d marks the D form. Ends that are not written are not given here. Peptide text beside a SMILES is read from it. I, II: the chains in the order shown. Ahx = NCCCCCC(=O)O

How the values were obtained:
[1] = tested on: E. coli ATCC 11775; type: cell-based
Method: (§1) The minimal inhibitory concentration (MIC) was determined using a microdilution assay. In brief, bacterial strains were incubated for 18 to 24 h at 37 °C in an Muller Hinton broth (MHB) until an optical density of 0.15 to 0.30 (620 nm) was obtained. 90 µL of MHB was mixed with 90 µL of peptide (440 µg/mL), and using a 96-well microtiter plate peptide, serial dilution (200, 100, 50, 25, 12.5, and 6.2 µg/mL) was performed. 10 µL of inoculum (2 × 10^6 CFU/mL) was added to each well. Final volume in each well was 100 µL. Then they were incubated for 24 h at 37 °C, and the absorbance at 620 nm was measured using an Asys Expert Plus ELISA reader. For determining the minimum bactericidal concentration (MBC), a small sample was taken from each well using an inoculation loop, which was then spread on MHA plates and incubated overnight at 37 °C. […] Each of these tests was performed twice (n = 2).

[2] = tested on: E. coli ATCC 25922; type: cell-based
Method: as §1

[3] = type: cell-based, human; settings: human
Method: (§2) Cytotoxicity assays were performed as previously described. Briefly, breast cancer cell lines (100 µL; 2.5 × 10^3 cells/well) were seeded in 96-well flat bottom tissue culture treated plates and were incubated at 37 °C in a 10% CO2 humidified atmosphere for 24 h, allowing for cell adhesion. Then the media was removed, then 100 µL of FBS (5%) and 100 µL of peptide were added. The peptide final concentration was ranging from 200 to 6.25 µg/mL and the final FBS concentration was 2.5%. Plates were incubated 2 h at 37 °C in a 10% CO2 humidified atmosphere (physiologic pH). Negative controls included medium and water. All controls were prepared in triplicate. Cell viability was determined using the MTT assay after 2 h. For this, 10 µL of MTT solution (5 mg/mL) was added to each well, and the plates were incubated for 2 h at 37 °C. Formazan crystals were clarified by centrifugation, the supernatant was discarded, and the crystals were dissolved in DMSO (100 µL). Absorbance (570 nm) was registered on a Bio-Rad 680 microplate reader. (n = 3).

[4] = tested on: human gastric cancer cell line AGS; settings: cited from earlier work
[5] = type: cell-based, human; settings: human; remark: listed apart in the source
Method: as §2

[6] = E. coli ATCC 11775, microdilution in MHB, 24 h at 37 °C, absorbance 620 nm, n = 2
[7] = E. coli ATCC 11775, plated on MHA overnight at 37 °C, no bacterial growth, n = 2
[8] = E. coli ATCC 25922, microdilution in MHB, 24 h at 37 °C, absorbance 620 nm, n = 2
[9] = E. coli ATCC 25922, plated on MHA overnight at 37 °C, no bacterial growth, n = 2

Molecule | Antibacterial Effect MBC ([1]; ATCC 11775) | Antibacterial Effect MIC ([1]; ATCC 11775, 24 h) | Antibacterial Effect MBC ([2]; ATCC 25922) | Antibacterial Effect MIC ([2]; ATCC 25922, 24 h) | IC50 at 2 h [3] [µM] | IC50 [4] [µM] | IC50 at 2 h [5] [µM] | Antibacterial Effect MIC [1, 6] [µg/mL] | Antibacterial Effect MBC [1, 7] [µg/mL] | Antibacterial Effect MIC [2, 8] [µg/mL] | Antibacterial Effect MBC [2, 9] [µg/mL] | Antibacterial Effect MIC ([1]; E. coli ATCC 11775, value in parentheses, microdilution in MHB, 24 h at 37 °C, n = 2) [µM] | Antibacterial Effect MBC ([1]; E. coli ATCC 11775, value in parentheses, plated on MHA overnight at 37 °C, n = 2) [µM] | Antibacterial Effect MBC ([2]; E. coli ATCC 25922, value in parentheses, plated on MHA overnight at 37 °C, n = 2) [µM]
CSCC[C@@H]1NC(=O)[C@H](CCCNC(=N)N)NC(=O)[C@H](Cc2c[nH]c3ccccc23)NC(=O)[C@H](CCC(N)=O)NC(=O)[C@H](Cc2c[nH]c3ccccc23)NC(=O)[C@H](CCCNC(=N)N)NC(=O)[C@H](CCCNC(=N)N)NC(=O)[C@@H](N)CSSC[C@@H](C(N)=O)NC(=O)CCCCCNC(=O)CNC(=O)[C@H](CC(C)C)NC(=O)[C@H](CCCCN)NC(=O)[C@H](CCCCN)NC1=O [LfcinB (20–30)cyc] (H-CRRWQWRMKKLG[Ahx]C-NH2; disulfide 1-14) | 200 µg/mL | 200 µg/mL | 200 µg/mL | 200 µg/mL |  |  |  |  |  |  |  |  |  | 
RRWQWRMKKLG-NH2 [LfcinB (20–30)] | 130 µM | 130 µM | 130 µM | 130 µM | > 130 | > 500 | > 130 |  |  |  |  |  |  | 
CSCC[C@H](NC(=O)[C@H](CCCNC(=N)N)NC(=O)[C@H](Cc1c[nH]c2ccccc12)NC(=O)[C@H](CCC(N)=O)NC(=O)[C@H](Cc1c[nH]c2ccccc12)NC(=O)[C@H](CCCNC(=N)N)NC(=O)[C@H](CCCNC(=N)N)NC(=O)[C@H](C)NC(=O)[C@H](CCCCN)NC(=O)[C@@H](N)Cc1ccccc1)C(=O)N[C@@H](CCCCN)C(=O)N[C@@H](CCCCN)C(=O)N[C@@H](CC(C)C)C(=O)NCC(=O)N[C@@H](C)C(=O)NCCCC[C@H](NC(=O)[C@H](C)NC(=O)CNC(=O)[C@H](CC(C)C)NC(=O)[C@H](CCCCN)NC(=O)[C@H](CCCCN)NC(=O)[C@H](CCSC)NC(=O)[C@H](CCCNC(=N)N)NC(=O)[C@H](Cc1c[nH]c2ccccc12)NC(=O)[C@H](CCC(N)=O)NC(=O)[C@H](Cc1c[nH]c2ccccc12)NC(=O)[C@H](CCCNC(=N)N)NC(=O)[C@H](CCCNC(=N)N)NC(=O)[C@H](C)NC(=O)[C@H](CCCCN)NC(=O)[C@@H](N)Cc1ccccc1)C(=O)NCCCCCC(N)=O [[Ala^19]-LfcinB (17–31)2] (I: H-FKARRWQWRMKKLGAK[Ahx]-NH2 / II: H-FKARRWQWRMKKLGA; amide I:16-II:C) | > 48 µM | > 48 µM | 24 µM | 24 µM |  |  |  | > 200 | > 200 | 100 | 100 |  |  | 
CSCC[C@@H]1NC(=O)[C@H](CCCNC(=N)N)NC(=O)[C@H](Cc2c[nH]c3ccccc23)NC(=O)[C@H](CCC(N)=O)NC(=O)[C@H](Cc2c[nH]c3ccccc23)NC(=O)[C@H](CCCNC(=N)N)NC(=O)[C@H](CCCNC(=N)N)NC(=O)[C@H](C)NC(=O)[C@H](CCCCN)NC(=O)[C@H](Cc2ccccc2)NC(=O)[C@@H](N)CSSC[C@@H](C(N)=O)NC(=O)CCCCCNC(=O)[C@H](C)NC(=O)CNC(=O)[C@H](CC(C)C)NC(=O)[C@H](CCCCN)NC(=O)[C@H](CCCCN)NC1=O [[Ala^19]-LfcinB (17–31)cyc] (H-CFKARRWQWRMKKLGA[Ahx]C-NH2; disulfide 1-18) | > 88 µM | > 88 µM | 88 µM | 88 µM | > 88 |  | > 88 | > 200 | > 200 | 200 | 200 |  |  | 
CSCC[C@H](NC(=O)[C@H](CCCNC(=N)N)NC(=O)[C@H](Cc1c[nH]c2ccccc12)NC(=O)[C@H](CCC(N)=O)NC(=O)[C@H](Cc1c[nH]c2ccccc12)NC(=O)[C@H](CCCNC(=N)N)NC(=O)[C@H](CCCNC(=N)N)NC(=O)[C@H](C)NC(=O)[C@H](CCCCN)NC(=O)[C@@H](N)Cc1ccccc1)C(=O)N[C@@H](CCCCN)C(=O)N[C@@H](CCCCN)C(=O)N[C@@H](CC(C)C)C(=O)NCC(=O)N[C@@H](C)C(=O)O [[Ala^19]-LfcinB (17–31)] | 102 µM | > 102 µM | 102 µM | 102 µM | > 102 |  | > 102 |  |  |  |  |  |  | 
I: H-RRWQWRMKKLGK[Ahx]C-NH2 / II: H-RRWQWRMKKLGK[Ahx]C-NH2 / III: H-RRWQWRMKKLG / IV: H-RRWQWRMKKLG (amide I:12-III:C, II:12-IV:C; disulfide I:14-II:14) [LfcinB (20–30)4] | 15 µM | 15 µM | 15 µM | 15 µM |  |  |  | 200 | 200 | 200 | 200 |  |  | 
CSCC[C@H](NC(=O)[C@H](CCCNC(=N)N)NC(=O)[C@H](Cc1c[nH]c2ccccc12)NC(=O)[C@H](CCC(N)=O)NC(=O)[C@H](Cc1c[nH]c2ccccc12)NC(=O)[C@H](CCCNC(=N)N)NC(=O)[C@@H](N)CCCNC(=N)N)C(=O)N[C@@H](CCCCN)C(=O)N[C@@H](CCCCN)C(=O)N[C@@H](CC(C)C)C(=O)NCC(=O)NCCCC[C@H](NC(=O)CNC(=O)[C@H](CC(C)C)NC(=O)[C@H](CCCCN)NC(=O)[C@H](CCCCN)NC(=O)[C@H](CCSC)NC(=O)[C@H](CCCNC(=N)N)NC(=O)[C@H](Cc1c[nH]c2ccccc12)NC(=O)[C@H](CCC(N)=O)NC(=O)[C@H](Cc1c[nH]c2ccccc12)NC(=O)[C@H](CCCNC(=N)N)NC(=O)[C@@H](N)CCCNC(=N)N)C(=O)NCCCCCC(N)=O [LfcinB (20–30)2] (I: H-RRWQWRMKKLGK[Ahx]-NH2 / II: H-RRWQWRMKKLG; amide I:12-II:C) | 60 µM | 60 µM | 60 µM | 30 µM |  |  |  | 200 | 200 | 100 | 200 |  |  | 
N=C(N)NCCC[C@@H]1NC(=O)[C@H](Cc2c[nH]c3ccccc23)NC(=O)[C@H](CCC(N)=O)NC(=O)[C@H](Cc2c[nH]c3ccccc23)NC(=O)[C@H](CCCNC(=N)N)NC(=O)[C@H](CCCNC(=N)N)NC(=O)[C@@H](N)CSSC[C@@H](C(N)=O)NC(=O)CCCCCNC1=O [LfcinB (20–25)cyc] (H-CRRWQWR[Ahx]C-NH2; disulfide 1-9) |  |  |  | 77 µM |  |  |  |  |  | 100 |  | 153 | 153 | > 153
